Test results reported in patent US20260184691A1, “INHIBITORS AND DEGRADERS OF PIP4K PROTEIN” (Larkspur Biosciences, Inc., priority 2022, published 2026).
pIC50: −log10 of the molar value.

target: T1, Human PIP4K2C (Homo sapiens, UniProt Q8TBX8); assay: Enzyme binding assay (KINOMEscan), active site-directed competition binding; conditions: 11-point dose response, duplicate, top concentration 5 micromolar; read-out: Pip4k2c Kd: IC50
T1 construct: purchased Eurofins DiscoverX 87-0007-1094
T1 sequence (Q8TBX8 1-421): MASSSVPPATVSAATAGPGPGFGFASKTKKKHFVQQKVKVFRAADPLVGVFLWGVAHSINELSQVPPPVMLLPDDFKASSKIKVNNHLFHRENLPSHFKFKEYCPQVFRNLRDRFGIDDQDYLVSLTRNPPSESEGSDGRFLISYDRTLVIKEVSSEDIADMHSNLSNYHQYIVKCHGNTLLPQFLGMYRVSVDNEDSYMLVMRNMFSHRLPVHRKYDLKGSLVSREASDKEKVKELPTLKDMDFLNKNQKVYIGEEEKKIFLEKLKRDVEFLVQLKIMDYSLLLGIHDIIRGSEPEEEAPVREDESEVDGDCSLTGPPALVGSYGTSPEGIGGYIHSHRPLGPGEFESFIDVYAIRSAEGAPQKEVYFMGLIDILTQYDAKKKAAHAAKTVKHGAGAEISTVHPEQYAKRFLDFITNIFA
Procedure: PIP4K2C binding constants disclosed herein were determined using the proprietary Human PIP4K2C binding assay (Catalog number 87-0007-1094, Eurofins DiscoverX, San Diego, CA). This assay measures active site-directed competition binding to an immobilized ligand (see https://doi.org/10.1038/nbt1068, herein incorporated by reference in its entirety). Experiments were conducted using an 11-point dose response curve, in duplicate, with a top starting concentration of 5 micromolar; the Levenberg-Marquardt algorithm was used to fit a Hill equation to dose-response data to calculate IC50 values (see Table 5).

Row | Compound | pIC50
1 | O=C1CCCN1c1cncc(Nc2ncc(Cl)c(N3CCCc4ccccc43)n2)c1 [Compound 127, 1-(5-((5-chloro-4-(3,4-dihydroquinolin-1(2H)-yl)pyrimidin-2-yl)amino)pyridin-3-yl)pyrrolidin-2-one] | > 6.30
2 | O=C1CCCN1c1cncc(Nc2ncc(Cl)c(-c3cc(C4CC4)[nH]n3)n2)c1 [Compound 50, 1-(5-((5-chloro-4-(5-cyclopropyl-1H-pyrazol-3-yl)pyrimidin-2-yl)amino)pyridin-3-yl)pyrrolidin-2-one] | > 6.30
3 | CC1CCCCN1c1nc(Nc2cncc(N3CCCC3=O)c2)ncc1Cl (stereo not shown) [Compound 106, 1-(5-((5-chloro-4-(2-methylpiperidin-1-yl)pyrimidin-2-yl)amino)pyridin-3-yl)pyrrolidin-2-one] | > 6.30
4 | CC1CN(c2nc(Nc3cncc(N4CCCC4=O)c3)ncc2Cl)CC(C)O1 (stereo not shown) [Compound 114, 1-(5-((5-chloro-4-(2,6-dimethylmorpholino)pyrimidin-2-yl)amino)pyridin-3-yl)pyrrolidin-2-one] | > 6.30
5 | CC(=O)N1CCC(n2cc(-c3nc(Nc4cncc(N5CCCC5=O)c4)ncc3Cl)cn2)CC1 [Compound 48, 1-(5-((4-(1-(1-acetylpiperidin-4-yl)-1H-pyrazol-4-yl)-5-chloropyrimidin-2-yl)amino)pyridin-3-yl)pyrrolidin-2-one] | > 6.30
6 | CC(=O)N1CCCC(c2nc(Nc3cncc(N4CCCC4=O)c3)ncc2Cl)C1 (stereo not shown) [Compound 151, 1-(5-((4-(1-acetylpiperidin-3-yl)-5-chloropyrimidin-2-yl)amino)pyridin-3-yl)pyrrolidine-2-one] | > 6.30
7 | O=C1CCCN1c1cncc(Nc2ncc(Cl)c(-c3cccc(C4CCC4)c3)n2)c1 [Compound 39, 1-(5-((5-chloro-4-(3-cyclobutylphenyl)pyrimidin-2-yl)amino)pyridin-3-yl)pyrrolidin-2-one] | > 6.30
8 | CN1CCCC(c2cccc(-c3nc(Nc4cncc(N5CCCC5=O)c4)ncc3Cl)c2)C1 (stereo not shown) [Compound 33, 1-(5-((5-chloro-4-(3-(1-methylpiperidin-3-yl)phenyl)pyrimidin-2-yl)amino)pyridin-3-yl)pyrrolidin-2-one] | > 6.30
9 | O=C1CCCN1c1cncc(Nc2ncc(Cl)c(N3CCOCC3)n2)c1 [Compound 107, 1-(5-((5-chloro-4-morpholinopyrimidin-2-yl)amino)pyridin-3-yl)pyrrolidin-2-one] | > 6.30
10 | O=C1CCCN1c1cncc(Nc2ncc(Cl)c(-c3cccc(N4CCCC4)c3)n2)c1 [Compound 46, 1-(5-((5-chloro-4-(3-(pyrrolidin-1-yl)phenyl)pyrimidin-2-yl)amino)pyridin-3-yl)pyrrolidin-2-one] | > 6.30
11 | O=C1CCCN1c1cncc(Nc2ncc(Cl)c(N3CCC(N4CCCCC4)C3)n2)c1 (stereo not shown) [Compound 121, 1-(5-((5-chloro-4-(3-(piperidin-1-yl)pyrrolidin-1-yl)pyrimidin-2-yl)amino)pyridin-3-yl)pyrrolidin-2-one] | > 6.30
12 | Cc1ccc(-c2nc(Nc3cncc(N4CCCC4=O)c3)ncc2Cl)cc1 [Compound 94, 1-(5-((5-chloro-4-(p-tolyl)pyrimidin-2-yl)amino)pyridin-3-yl)pyrrolidin-2-one] | > 6.30
13 | O=C1CCCN1c1cncc(Nc2ncc(Cl)c(N3CCOC(c4ccccn4)C3)n2)c1 (stereo not shown) [Compound 134, 1-[5-[[5-chloro-4-[2-(2-pyridyl)morpholin-4-yl]pyrimidin-2-yl]amino]-3-pyridyl]pyrrolidin-2-one] | > 6.30
14 | O=C1CCCN1c1cncc(Nc2ncc(Cl)c(N3CCCC(n4ccccc4=O)C3)n2)c1 (stereo not shown) [Compound 156, 1-(1-(5-chloro-2-((5-(2-oxopyrrolidin-1-yl)pyridin-3-yl)amino)pyrimidin-4-yl)piperidin-3-yl)pyridin-2(1H)-one] | > 6.30
15 | O=C1CCCN1c1cncc(Nc2ncc(F)c(-c3cnn(C4COC4)c3)n2)c1 [Compound 148, 1-(5-((5-fluoro-4-(1-(oxetan-3-yl)-1H-pyrazol-4-yl)pyrimidin-2-yl)amino)pyridin-3-yl)pyrrolidin-2-one] | > 6.30
16 | O=C1CCCN1c1cncc(Nc2ncc(Cl)c(-c3cccc(N4CCC4)c3)n2)c1 [Compound 122, 1-(5-((4-(3-(azetidin-1-yl)phenyl)-5-chloropyrimidin-2-yl)amino)pyridin-3-yl)pyrrolidin-2-one] | > 6.30
17 | Cc1cc(-c2nc(Nc3cncc(N4CCCC4=O)c3)ncc2Cl)ccn1 [Compound 105, 1-(5-((5-chloro-4-(2-methylpyridin-4-yl)pyrimidin-2-yl)amino)pyridin-3-yl)pyrrolidin-2-one] | 6.00 to 6.30

Row | Compound | pIC50
18 | O=C1CCCN1c1cncc(Nc2ncc(Cl)c(-c3cc(Cl)cc(-c4ccccc4)c3)n2)c1 [Compound 22, 1-(5-((5-chloro-4-(5-chloro-[1,1′-biphenyl]-3-yl)pyrimidin-2-yl)amino)pyridin-3-yl)pyrrolidin-2-one] | > 6.30
19 | CC1CCN(c2nc(Nc3cncc(N4CCCC4=O)c3)ncc2Cl)CC1 [Compound 102, 1-(5-((5-chloro-4-(4-methylpiperidin-1yl)pyrimidin-2-yl)amino)pyridin-3-yl)pyrrolidin-2-one] | > 6.30
20 | O=C1CCCN1c1cncc(Nc2ncc(Cl)c(-c3cccc(-c4ccc(Cl)c(Cl)c4)c3)n2)c1 [Compound 2, 1-(5-((5-chloro-4-(3′,4′-dichloro-[1,1′-biphenyl]-3-yl)pyrimidin-2-yl)amino)pyridin-3-yl)pyrrolidin-2-one] | > 6.30
21 | O=C1CCCN1c1cncc(Nc2ncc(Cl)c(-c3cccc(C4CC4)c3)n2)c1 [Compound 12, 1-(5-((5-chloro-4-(3-cyclopropylphenyl)pyrimidin-2-yl)amino)pyridin-3-yl)pyrrolidin-2-one] | > 6.30
22 | O=C1CCCN1c1cncc(Nc2ncc(Cl)c(-c3cnn(C4CCCC4)c3)n2)c1 [Compound 138, 1-[5-[[5-chloro-4-(1-cyclopentylpyrazol-4-yl)pyrimidin-2-yl]amino]-3-pyridyl]pyrrolidin-2-one] | > 6.30
23 | CC(=O)N1CCC(c2cccc(-c3nc(Nc4cncc(N5CCCC5=O)c4)ncc3Cl)c2)CC1 [Compound 28, 1-(5-((4-(3-(1-acetylpiperidin-4-yl)phenyl)-5-chloropyrimidin-2-yl)amino)pyridin-3-yl)pyrrolidin-2-one] | > 6.30
24 | COc1ccc(-c2nc(Nc3cncc(N4CCCC4=O)c3)ncc2Cl)cc1-c1ccccc1 [Compound 8, 1-(5-((5-chloro-4-(6-methoxy-[1,1′-biphenyl]-3-yl)pyrimidin-2-yl)amino)pyridin-3-yl)pyrrolidin-2-one] | > 6.30
25 | COc1cc(-c2ccccc2)cc(-c2nc(Nc3cncc(N4CCCC4=O)c3)ncc2Cl)c1 [Compound 18, 1-(5-((5-chloro-4-(5-methoxy-[1,1′-biphenyl]-3-yl)pyrimidin-2-yl)amino)pyridin-3-yl)pyrrolidin-2-one] | > 6.30
26 | Cc1cc(F)ccc1-c1nc(Nc2cncc(N3CCCC3=O)c2)ncc1Cl [Compound 113, 1-(5-((5-chloro-4-(4-fluoro-2methylphenyl)pyrimidin-2-yl)amino)pyridin-3-yl)pyrrolidin-2-one] | > 6.30
27 | O=C1CCCN1c1ccc(Nc2ncc(F)c(-c3cccc(C4CC4)c3)n2)cn1 [Compound 147, 1-(5-((4-(3-cyclopropylphenyl)-5-fluoropyrimidin-2-yl)amino)pyridin-2-yl)pyrrolidin-2-one] | > 6.30
28 | O=C1CCCN1c1cncc(Nc2cc(-c3ccc(F)cc3)c(Cl)cn2)c1 [Compound 103, 1-(5-((5-chloro-4-(4-fluorophenyl)pyridin-2-yl)amino)pyridin-3-yl)pyrrolidin-2-one] | > 6.30
29 | O=C1CCCN1c1cncc(Nc2ncc(Cl)c(N3CCC(c4ccccc4)C3)n2)c1 (stereo not shown) [Compound 42, 1-(5-((5-chloro-4-(3-phenylpyrrolidin-1-yl)pyrimidin-2-yl)amino)pyridin-3-yl)pyrrolidin-2-one] | > 6.30
30 | Cc1ccc(-c2ccccc2)cc1-c1nc(Nc2cncc(N3CCCC3=O)c2)ncc1Cl [Compound 10, 1-(5-((5-chloro-4-(4-methyl-[1,1′-biphenyl]-3-yl)pyrimidin-2-yl)amino)pyridin-3-yl)pyrrolidin-2-one] | > 6.30
31 | O=C(C1CCCC1)N1CCC(c2nc(Nc3cncc(N4CCCC4=O)c3)ncc2Cl)CC1 [Compound 153, 1-(5-((5-chloro-4-(1-(cyclopentanecarbonyl)piperidin-4-yl)pyrimidin-2-yl)amino)pyridin-3-yl)pyrrolidin-2-one] | > 6.30
32 | CN1CCC(n2cc(-c3nc(Nc4cncc(N5CCCC5=O)c4)ncc3Cl)cn2)CC1 [Compound 47, 1-(5-((5-chloro-4-(1-(1-methylpiperidin-4-yl)-1H-pyrazol-4-yl)pyrimidin-2-yl)amino)pyridin-3-yl)pyrrolidin-2-one] | > 6.30
33 | O=C1CCCN1c1cncc(Nc2ncc(Cl)c(N3CCCC(C4CCCC4)C3)n2)c1 (stereo not shown) [Compound 131, 1-(5-((5-chloro-4-(3-cyclopentylpiperidin-1-yl)pyrimidin-2-yl)amino)pyridin-3-yl)pyrrolidin-2-one] | > 6.30
34 | O=C1CCCN1c1cncc(Nc2ncc(Cl)c(-c3cccc(Oc4ccccc4)c3)n2)c1 [Compound 142, 1-(5-((5-chloro-4-(3-phenoxyphenyl)pyrimidin-2-yl)amino)pyridin-3-yl)pyrrolidin-2-one] | > 6.30
